Data from article PMC11863801 (The Journal of Headache and Pain, 2025).

Target: NaV1.9 (Rattus norvegicus, UniProt O88457)
Test: whole-cell patch clamp of NaV1.9-mediated current
Type: cell-based

NaV1.9, sequence (O88457 whole entry): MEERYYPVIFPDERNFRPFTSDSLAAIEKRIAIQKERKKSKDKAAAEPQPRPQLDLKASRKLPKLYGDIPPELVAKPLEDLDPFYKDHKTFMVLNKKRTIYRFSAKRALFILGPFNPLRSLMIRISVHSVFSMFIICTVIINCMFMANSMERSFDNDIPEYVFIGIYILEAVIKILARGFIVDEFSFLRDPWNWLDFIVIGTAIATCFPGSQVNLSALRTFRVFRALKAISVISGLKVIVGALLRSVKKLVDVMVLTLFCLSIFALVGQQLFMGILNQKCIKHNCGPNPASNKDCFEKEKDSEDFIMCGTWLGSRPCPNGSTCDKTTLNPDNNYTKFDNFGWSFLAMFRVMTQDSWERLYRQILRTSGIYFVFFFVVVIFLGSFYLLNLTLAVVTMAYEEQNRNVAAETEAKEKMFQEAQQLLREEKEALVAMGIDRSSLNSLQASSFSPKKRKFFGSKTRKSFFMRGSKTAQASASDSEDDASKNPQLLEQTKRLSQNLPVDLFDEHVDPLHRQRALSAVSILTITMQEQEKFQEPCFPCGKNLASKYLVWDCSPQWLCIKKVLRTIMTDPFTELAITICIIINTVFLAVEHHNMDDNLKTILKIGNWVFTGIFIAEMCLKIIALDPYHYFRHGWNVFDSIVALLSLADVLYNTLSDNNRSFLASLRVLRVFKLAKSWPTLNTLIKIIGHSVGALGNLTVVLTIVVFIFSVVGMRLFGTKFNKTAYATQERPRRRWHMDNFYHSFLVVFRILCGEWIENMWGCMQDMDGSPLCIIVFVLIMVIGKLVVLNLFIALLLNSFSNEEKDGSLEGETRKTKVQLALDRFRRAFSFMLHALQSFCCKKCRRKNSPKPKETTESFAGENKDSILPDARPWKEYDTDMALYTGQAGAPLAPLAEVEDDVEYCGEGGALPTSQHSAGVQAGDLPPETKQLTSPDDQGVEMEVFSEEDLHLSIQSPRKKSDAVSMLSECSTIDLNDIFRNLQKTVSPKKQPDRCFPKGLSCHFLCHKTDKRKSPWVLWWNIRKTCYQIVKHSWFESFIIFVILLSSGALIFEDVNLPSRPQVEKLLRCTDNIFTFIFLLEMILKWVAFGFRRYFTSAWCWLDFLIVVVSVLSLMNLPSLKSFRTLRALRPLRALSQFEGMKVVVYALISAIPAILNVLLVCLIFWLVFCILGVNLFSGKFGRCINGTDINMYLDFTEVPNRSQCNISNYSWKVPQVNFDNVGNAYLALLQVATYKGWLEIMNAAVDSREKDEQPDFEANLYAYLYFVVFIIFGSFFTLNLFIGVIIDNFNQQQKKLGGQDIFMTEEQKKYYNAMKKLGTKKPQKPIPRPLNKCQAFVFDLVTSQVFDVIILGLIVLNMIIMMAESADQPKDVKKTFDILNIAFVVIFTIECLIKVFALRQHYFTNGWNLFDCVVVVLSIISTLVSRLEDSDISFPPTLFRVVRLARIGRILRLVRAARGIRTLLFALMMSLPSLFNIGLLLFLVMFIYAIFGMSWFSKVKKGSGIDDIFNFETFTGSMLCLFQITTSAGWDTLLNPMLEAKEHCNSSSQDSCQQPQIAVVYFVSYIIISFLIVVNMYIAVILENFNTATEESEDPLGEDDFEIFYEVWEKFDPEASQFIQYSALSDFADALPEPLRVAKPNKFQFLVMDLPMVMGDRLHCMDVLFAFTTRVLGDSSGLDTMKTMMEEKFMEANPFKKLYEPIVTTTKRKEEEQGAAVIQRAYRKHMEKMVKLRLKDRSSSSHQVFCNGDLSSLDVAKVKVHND

C[C@]12CC[C@H](O)CC1=CC[C@@H]1[C@@H]2CC[C@]2(C)C(=O)CC[C@@H]12 [DHEA, dehydroepiandrosterone]
IC50: 49.2 µM
